From patent publication US6455550B1, “N-alkanoylphenylalanine derivatives” (Hoffmann-La Roche Inc., priority 1997, dated 2002)
Counter-ions that a name gives are not always drawn.

Each molecule was assayed against T1, VLA-4 (α4β1 integrin) binding to immobilized VCAM-1 (Homo sapiens, UniProt P05556+P13612) (assay: VLA-4/VCAM-1 Screening Assay (solid-phase, dual antibody ELISA)). Conditions: not given.
T1 construct: followed by 10 μl of Ramos cell-derived VLA-4; endogenous in cells; host or cells: Ramos cells (VLA-4 preparation derived from the cells)
T1 sequence (P13612 34-1032): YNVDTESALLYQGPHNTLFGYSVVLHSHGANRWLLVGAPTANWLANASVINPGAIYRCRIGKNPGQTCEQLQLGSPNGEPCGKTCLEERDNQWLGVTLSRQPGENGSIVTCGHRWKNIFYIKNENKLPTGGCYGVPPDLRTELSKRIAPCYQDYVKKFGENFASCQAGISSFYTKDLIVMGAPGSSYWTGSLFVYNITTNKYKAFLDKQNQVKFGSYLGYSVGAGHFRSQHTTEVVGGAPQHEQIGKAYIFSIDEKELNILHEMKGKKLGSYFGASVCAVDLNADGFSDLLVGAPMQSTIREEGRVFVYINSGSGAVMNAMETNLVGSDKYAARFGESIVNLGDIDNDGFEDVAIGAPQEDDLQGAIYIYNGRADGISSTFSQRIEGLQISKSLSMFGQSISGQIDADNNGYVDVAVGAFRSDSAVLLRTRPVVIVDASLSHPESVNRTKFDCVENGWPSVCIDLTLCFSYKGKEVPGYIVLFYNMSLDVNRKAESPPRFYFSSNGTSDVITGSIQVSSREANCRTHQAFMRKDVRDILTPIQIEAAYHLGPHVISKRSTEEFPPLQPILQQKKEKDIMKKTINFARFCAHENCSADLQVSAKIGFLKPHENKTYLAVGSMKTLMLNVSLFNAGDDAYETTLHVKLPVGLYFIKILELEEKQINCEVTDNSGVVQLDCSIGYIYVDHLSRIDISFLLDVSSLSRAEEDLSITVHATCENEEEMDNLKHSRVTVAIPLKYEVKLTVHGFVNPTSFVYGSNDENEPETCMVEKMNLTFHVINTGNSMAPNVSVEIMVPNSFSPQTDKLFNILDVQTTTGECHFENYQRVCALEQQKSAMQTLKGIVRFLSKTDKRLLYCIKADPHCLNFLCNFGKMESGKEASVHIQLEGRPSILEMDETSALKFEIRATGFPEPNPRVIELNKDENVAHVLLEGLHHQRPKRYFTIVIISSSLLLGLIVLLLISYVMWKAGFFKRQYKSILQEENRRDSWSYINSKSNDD
T1 sequence (P05556 21-798): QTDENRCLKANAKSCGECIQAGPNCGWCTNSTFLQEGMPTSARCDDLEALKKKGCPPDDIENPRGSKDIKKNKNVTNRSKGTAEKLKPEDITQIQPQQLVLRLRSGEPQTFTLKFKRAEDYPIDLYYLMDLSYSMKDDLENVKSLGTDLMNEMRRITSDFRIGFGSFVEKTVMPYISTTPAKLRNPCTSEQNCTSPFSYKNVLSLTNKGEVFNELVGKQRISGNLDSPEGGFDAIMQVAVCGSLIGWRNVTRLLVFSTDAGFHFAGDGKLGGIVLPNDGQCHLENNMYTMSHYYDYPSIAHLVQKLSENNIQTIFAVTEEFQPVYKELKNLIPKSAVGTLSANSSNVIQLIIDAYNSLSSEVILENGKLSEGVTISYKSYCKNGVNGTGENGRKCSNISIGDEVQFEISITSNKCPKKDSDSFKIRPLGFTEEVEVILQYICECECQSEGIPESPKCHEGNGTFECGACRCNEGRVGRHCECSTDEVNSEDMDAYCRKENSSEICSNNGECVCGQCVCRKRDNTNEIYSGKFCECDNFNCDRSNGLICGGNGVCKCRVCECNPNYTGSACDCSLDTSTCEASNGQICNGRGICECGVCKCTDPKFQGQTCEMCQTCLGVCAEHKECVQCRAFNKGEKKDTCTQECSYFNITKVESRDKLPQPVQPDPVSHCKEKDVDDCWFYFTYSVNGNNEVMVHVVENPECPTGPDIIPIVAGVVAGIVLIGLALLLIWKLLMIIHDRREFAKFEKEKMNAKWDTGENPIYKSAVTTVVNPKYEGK
Procedure: VLA-4 antagonist activity, defined as ability to compete for binding to immobilized VCAM-1 was quantitated using a solid-phase, dual antibody ELISA. VLA-4 (α4β1 integrin) bound to VCAM-1 was detected by a complex of anti-integrin β1 antibody: HRP-conjugated anti-mouse IgG: chromogenic substrate (K-Blue). Initially, this entailed coating 96 well plates (Nunc Maxisorp) with recombinant human VCAM-1 (0.4 μg in 100 μl PBS), sealing each plate and then allowing the plates to stand at 4° C for Å18 hr. […] On the day of assay, all plates were washed twice with VCAM Assay Buffer (200 μl/well of 50 mM Tris-HCl, 100 mM NaCl, 1 mM MnCl2, 0.05% Tween 20; pH 7.4). Test compounds were dissolved in 100% DMSO and then diluted 1:20 in VCAM Assay Buffer supplemented with 1 mg/mL BSA (i.e., final DMSO=5%). […] 100 μl per well of each dilution was added to the VCAM-coated plates, followed by 10 μl of Ramos cell-derived VLA-4. These plates were sequentially mixed on a platform shaker for 1 min, incubated for 2 hr at 37° C. and then washed four times with 200 μl/well VCAM Assay Buffer. 100 μl of mouse anti-human integrin β1 antibody was added to each well (0.6 μg/mL in VCAM Assay Buffer+1 mg/mL BSA) and allowed to incubate for 1 hr at 37° C. At the conclusion of this incubation period, all plates were washed four times with VCAM Assay Buffer (200 μl/well). A corresponding second antibody, HRP-conjugated goat anti-mouse IgG (100 μl per well @1:800 dilution in VCAM Assay Buffer+1 mg/mL BSA), was then added to each well, followed by a 1 hr incubation at room temperature and concluded by three washes (200 μl/well) with VCAM Assay Buffer. Color development was initiated by addition of 100 μl K-Blue per well (15 min incubation, room temp) and terminated by addition of 100 μl Red Stop Buffer per well. […] Results were calculated as % inhibition of total binding (i.e., VLA-4+VCAM-1 in the absence of test compound).

inhibition at 0.01 µM [%]	inhibition at 0.1 µM [%]	Compound
63	93	Cc1ccc(C2(C(=O)N[C@@H](Cc3ccc(NC(=O)c4ccnc5ccccc45)cc3)C(=O)O)CCCC2)cc1 [Example 78]
51	86	CC1CCC(C)(C(=O)N[C@@H](Cc2ccc(NC(=O)c3ccnc4ccccc34)cc2)C(=O)O)C1(C)C (stereo partly shown) [Example 71]
49	86	CC1(C(=O)N[C@@H](Cc2ccc(NC(=O)c3ccnc4ccccc34)cc2)C(=O)O)CCCCC1 [Example 70]
53	89	O=C(Nc1ccc(C[C@H](NC(=O)C2(c3ccc(Cl)cc3)CCCC2)C(=O)O)cc1)c1ccnc2ccccc12 [Example 80]

Same assay, conditions: IC50 nM, Ramos cell-derived VLA-4, recombinant human VCAM-1 coated plates, 2 hr at 37° C.

Compound	IC50 [nM]
O=C(Nc1ccc(C[C@H](NC(=O)C2(Cc3ccccc3Cl)CCCC2)C(=O)O)cc1)c1c(Cl)cccc1Cl [Example 51]	1.6

Same assay, conditions: Ramos cell-derived VLA-4, recombinant human VCAM-1 coated plates, 2 hr at 37° C.; read-out: IC50

IC50 [nM]	Compound
6.2	O=C(CC1CCCC1)NCCC1(C(=O)N[C@@H](Cc2ccc(NC(=O)c3c(Cl)cccc3Cl)cc2)C(=O)O)CCCC1 [Example 164]
9	Cc1ccc(C2(C(=O)N[C@@H](Cc3ccc(NC(=O)c4ccnc5ccccc45)cc3)C(=O)O)CCCC2)cc1 [Example 78]
0.75	COc1ccc(C2(C(=O)N[C@@H](Cc3ccc(N4C(=O)[C@H](CC(C)C)N(C)C4=O)cc3)C(=O)O)CCCCC2)cc1 [Example 144, N-[[1-(4-methoxyphenyl)cyclohexyl]carbonyl]-4-[(4S)-3-methyl-4-(2-methylpropyl)-2,5-dioxo-1-imidazolidinyl]-L-phenylalanine]
0.43	Cc1ccc([N+](=O)[O-])cc1C(=O)Nc1ccc(C[C@H](NC(=O)C23CC4CC(CC(C4)C2)C3)C(=O)O)cc1 [Example 85]
1.7	COc1ccc(C2(C(=O)N[C@@H](Cc3ccc(N4C(=O)CSC4c4ccc5ccccc5c4)cc3)C(=O)O)CCCCC2)cc1 (stereo partly drawn) [Example 142, N-[[1-(4-methoxyphenyl)cyclohexyl]carbonyl]-4-[2-(2-naphthyl)-4-oxo-3-thiazolidinyl]-L-phenylalanine]
1.5	CCCCC(C)(CC)C(=O)NC(Cc1ccc(NC(=O)CCN2CCCCC2)cc1)C(=O)O (stereo not shown) [Example 87]
2.5	CC1CCC(C)(C(=O)N[C@@H](Cc2ccc(NC(=O)c3ccnc4ccccc34)cc2)C(=O)O)C1(C)C (stereo partly shown) [Example 71]
40	CCCCC(C)(CC)C(=O)N[C@@H](Cc1ccc(NC(=O)[C@H](Cc2ccc(O)cc2)NC(C)=O)cc1)C(=O)O (stereo partly shown) [Example 91]
1.3	Cn1nnnc1-c1cccc(CC2(C(=O)N[C@@H](Cc3ccc(NC(=O)c4c(Cl)cccc4Cl)cc3)C(=O)O)CCCCC2)c1 [Example 50]
5	COc1ccc(CC2(C(=O)N[C@@H](Cc3ccc(NC(=O)N4CCC(C#N)(c5ccccc5)CC4)cc3)C(=O)O)CCCC2)cc1 [Example 119]
7	CC1(C(=O)N[C@@H](Cc2ccc(NC(=O)c3ccnc4ccccc34)cc2)C(=O)O)CCCCC1 [Example 70]
2.9	CCCCC(C)(CC)C(=O)N[C@@H](Cc1ccc(NC(=O)N2CCC(C#N)(c3ccccc3)CC2)cc1)C(=O)O (stereo partly shown) [Example 120]
155	COc1ccc(C2(C(=O)N[C@@H](Cc3ccc(NS(=O)(=O)c4c(C)cc(C)cc4C)cc3)C(=O)O)CCCCC2)cc1 [Example 114, N-[[1-(4-Methoxyphenyl)cyclohexyl]carbonyl]-4-[[(2,4,6-trimethylphenyl)sulfonyl]amino]-L-phenylalanine]
66	CCOC(=O)c1ccccc1NC(=O)Nc1ccc(C[C@H](NC(=O)C2(C)CC2(Cl)Cl)C(=O)O)cc1 (stereo partly shown) [Example 121]
1.04	CCCCC(C)(CC)C(=O)N[C@@H](Cc1ccc(NC(=O)c2cc([N+](=O)[O-])ccc2C)cc1)C(=O)O (stereo partly shown) [Example 90]
11.7	COc1ccc(CC2(C(=O)N[C@@H](Cc3ccc(NC(=O)[C@H](Cc4ccc(O)cc4)NC(C)=O)cc3)C(=O)O)CCCC2)cc1 [Example 98]
0.44	Cn1nnnc1-c1cccc(CC2(C(=O)N[C@@H](Cc3ccc(NC(=O)c4c(Cl)cccc4Cl)cc3)C(=O)O)CCCC2)c1 [Example 48]
1.9	COc1ccc(C2(C(=O)NC(Cc3ccc(NC(=O)CCN4CCCCC4)cc3)C(=O)O)CCCC2)cc1 (stereo not shown) [Example 93]
18.3	CC(=O)N[C@@H](Cc1ccc(O)cc1)C(=O)Nc1ccc(C[C@H](NC(=O)C2(C)CC2(Cl)Cl)C(=O)O)cc1 (stereo partly shown) [Example 101]
13.5	COc1ccc(C2(C(=O)NC(Cc3ccc(NC(=O)C(Cc4ccc(O)cc4)NC(C)=O)cc3)C(=O)O)CCCCC2)cc1 (stereo not shown) [Example 106]
6.4	O=C(Nc1ccc(C[C@H](NC(=O)C2(c3ccc(Cl)cc3)CCCC2)C(=O)O)cc1)c1ccnc2ccccc12 [Example 80]
2.8	COCCC1(C(=O)NC(Cc2ccc(N3C(=O)C(CC(C)C)N(C(C)=O)C3c3ccc(Cl)cc3)cc2)C(=O)O)CCCC1 (single isomer, unassigned) [Example 132]
3.9	COc1ccc(C2(C(=O)N[C@@H](Cc3ccc(N4C(=O)CSC4c4ccc(O)cc4)cc3)C(=O)O)CCCCC2)cc1 (stereo partly drawn) [Example 141, 4-[2-(4-Hydroxyphenyl)-4-oxo-3-thiazolidinyl]-N-[[1-(4-methoxyphenyl)cyclohexyl]carbonyl]-L-phenylalanine]

Compound	IC50 [nM]
O=C(Nc1ccc(C[C@H](NC(=O)C2(Cc3ccccc3)CCCC2)C(=O)O)cc1)c1ccccc1[N+](=O)[O-] [Example 35, 4-[[(2-Nitrophenyl)carbonyl]amino]-N-[[1-(phenylmethyl)cyclopentyl]carbonyl]-L-phenylalanine]	5
COc1ccc(CC2(C(=O)N[C@@H](Cc3ccc(NC(=O)c4ccccc4[N+](=O)[O-])cc3)C(=O)O)CCCC2)cc1 [Example 41, N-[[1-[(4-Methoxyphenyl)methyl]cyclopentyl]carbonyl]-4-[[(2-nitrophenyl)carbonyl]amino]-L-phenylalanine]	1.7
O=C(Nc1ccc(C[C@H](NC(=O)C2(c3ccccc3)CCCC2)C(=O)O)cc1)c1ccnc2ccccc12 [Example 27, N-[(1-Phenylcyclopentyl)carbonyl]-4-[(4-quinolinylcarbonyl)amino]-L-phenylalanine Sodium Salt]	2.7
COc1ccc(CC2(C(=O)N[C@@H](Cc3ccc(NC(=O)c4cc([N+](=O)[O-])ccc4C)cc3)C(=O)O)CCCC2)cc1 [Example 97]	0.5
COc1ccc(CC2(C(=O)N[C@@H](Cc3ccc(NC(=O)c4ccnc5ccccc45)cc3)C(=O)O)CCCC2)cc1 [Example 40, N-[[1-[(4-Methoxyphenyl)methyl]cyclopentyl]carbonyl]-4-[(4-quinolinylcarbonyl)amino]-L-phenylalanine]	2.1
